In ChEMBL document CHEMBL1799928, “New 2-thioether-substituted apomorphines as potent and selective dopamine D₂ receptor agonists” (Eur J Med Chem, 2011):
Values belong to the compound of their own block, whether it stands above or below them.

What was measured:
[1] = Selectivity ratio of Ki for rat D2 dopamine receptor to Ki for human D1 dopamine receptor
D(2) dopamine receptor [2] = biological target: T1, D(2) dopamine receptor (Rattus norvegicus, UniProt P61169); assay: Displacement of [3H]raclopride from rat D2 dopamine receptor expressed in CHOK1 cells after 90 mins by liquid scintillation counter scintillation counter; type: cell-based, CHO-K1
T1 sequence (P61169 whole entry): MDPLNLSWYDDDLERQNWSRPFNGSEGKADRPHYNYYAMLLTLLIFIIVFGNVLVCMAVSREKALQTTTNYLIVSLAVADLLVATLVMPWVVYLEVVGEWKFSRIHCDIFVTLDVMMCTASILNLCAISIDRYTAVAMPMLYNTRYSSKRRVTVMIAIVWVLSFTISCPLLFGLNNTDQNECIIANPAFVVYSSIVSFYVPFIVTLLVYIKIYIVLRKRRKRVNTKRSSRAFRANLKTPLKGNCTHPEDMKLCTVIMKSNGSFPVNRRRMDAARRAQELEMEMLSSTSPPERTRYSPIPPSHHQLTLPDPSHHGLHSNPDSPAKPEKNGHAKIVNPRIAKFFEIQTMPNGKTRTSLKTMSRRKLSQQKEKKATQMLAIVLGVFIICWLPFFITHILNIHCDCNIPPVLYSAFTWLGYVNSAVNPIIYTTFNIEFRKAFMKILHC

D(2) dopamine receptor [3] = biological target: T1, D(2) dopamine receptor; assay: Agonist activity at rat D2 dopamine receptor expressed in CHOK1 cells assessed as [35S]GTPgammaS binding after 90 mins by liquid scintillation counter; type: functional, cell-based, CHO-K1
D(1A) dopamine receptor = D(1A) dopamine receptor (Homo sapiens, UniProt P21728); assay: Displacement of [3H]SCH23390 from human D1 dopamine receptor expressed in Ltk fibroblast cells after 60 mins by liquid scintillation counter; type: cell-based
Chain of D(1A) dopamine receptor (P21728 whole entry): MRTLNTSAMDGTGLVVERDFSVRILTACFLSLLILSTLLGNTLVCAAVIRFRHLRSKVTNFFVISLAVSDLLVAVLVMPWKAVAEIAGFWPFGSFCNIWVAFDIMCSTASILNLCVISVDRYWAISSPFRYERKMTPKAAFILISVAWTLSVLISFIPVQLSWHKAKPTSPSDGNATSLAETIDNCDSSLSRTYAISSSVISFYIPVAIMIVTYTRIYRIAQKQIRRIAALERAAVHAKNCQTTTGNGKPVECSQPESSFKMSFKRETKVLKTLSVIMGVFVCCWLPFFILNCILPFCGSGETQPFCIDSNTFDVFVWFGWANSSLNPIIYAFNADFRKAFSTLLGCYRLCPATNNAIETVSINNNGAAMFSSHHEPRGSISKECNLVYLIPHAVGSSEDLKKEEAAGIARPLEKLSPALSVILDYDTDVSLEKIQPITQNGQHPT

Structure (SMILES): CN1CCc2cc(SCCC(=O)O)cc3c2[C@H]1Cc1ccc(O)c(O)c1-3
Ratio Ki [1]: 0.4
Ki (D(2) dopamine receptor [2]): 400 nM
EC50 (D(2) dopamine receptor [3]): 148 nM
Ki (D(1A) dopamine receptor): 150 nM

Structure (SMILES): CN1CCc2cc(SC[C@H](N)C(=O)O)cc3c2[C@H]1Cc1ccc(O)c(O)c1-3
Ki (D(1A) dopamine receptor): 4200 nM

Structure (SMILES): CN1CCc2cc(Sc3ccccc3)cc3c2[C@H]1Cc1ccc(O)c(O)c1-3
Ratio Ki [1]: 47
Ki (D(2) dopamine receptor [2]): 580 nM
EC50 (D(2) dopamine receptor [3]): 820 nM
Ki (D(1A) dopamine receptor): 2200 nM

The remaining compounds from weak to strong by Ki (D(1A) dopamine receptor), led by results:

Ratio Ki [1]: 135
Ki (D(2) dopamine receptor [2]): 9.6 nM
EC50 (D(2) dopamine receptor [3]): 16 nM
Ki (D(1A) dopamine receptor): 1300 nM
Structure (SMILES): CN1CCc2cc(SCCN)cc3c2[C@H]1Cc1ccc(O)c(O)c1-3

Ratio Ki [1]: 38
Ki (D(2) dopamine receptor [2]): 10 nM
EC50 (D(2) dopamine receptor [3]): 24 nM
Ki (D(1A) dopamine receptor): 380 nM
Structure (SMILES): COC(=O)[C@@H](N)CSc1cc2c3c(c1)-c1c(ccc(O)c1O)C[C@H]3N(C)CC2

Ki (D(1A) dopamine receptor): 141 nM
Structure (SMILES): CN1CCc2cc(SC[C@@H](N)C(=O)O)cc3c2[C@H]1Cc1ccc(O)c(O)c1-3

Ratio Ki [1]: 0.3
Ki (D(2) dopamine receptor [2]): 415 nM
EC50 (D(2) dopamine receptor [3]): 383 nM
Ki (D(1A) dopamine receptor): 140 nM
Structure (SMILES): CN1CCc2c3c(cc4c2[C@H]1Cc1ccc(O)c(O)c1-4)SCCC3=O
